Data on 27 compounds can be found in patent US9499537B2, “Antiviral pyrrolopyridine derivatives and method for preparing the same” (KOREA RESEARCH INSTITUTE OF CHEMICAL TECHNOLOGY, priority 2011, dated 2016).

For the data set, the system named is MT-4 cells. Description: Cytotoxicity test in MT-4 cells (MTT method). It counts as cell-based. The conditions noted are these: human. The procedure: In order to look into the HIV-1 inhibition effects of the compound of the present invention, an in vitro test for HIV-1 inhibition effects was carried out as follows according to a known method (H. Tanaka et al., J. Med. Chem., 1991, 34, 349). MT-4 cells were used as host cells, and the degree of the compound of the present invention inhibiting the cytotoxicity of the virus-infected MT-4 cells was investigated.
First, MT-4 cells were diffused at a concentration of 1×10^4 cell/well to a culture medium, and HIV-1 was inoculated so that the concentration was 500 TCI50 (concentration at which 50% of the cell is infected)/well. Immediately after the inoculation, the cell dispersion was transferred in 100 μL each to a flat microtiter plate in which the sample of the compound of the present invention was placed. The sample was incubated for approximately for 4 to 5 days at […], and the virus suppression effect was determined using an MTT method. In addition, the cytotoxicity was also determined by measuring the survivability of the experimentally virus-infected cells using an MTT method. As a comparative compound, azidothymidine (AZT) and raltegravir were used.
Regarding `Cc1nc2c(c(C)c(C)n2C)c(-c2ccc(Cl)cc2)c1C(OC(C)(C)C)C(=O)O` (stereo not drawn) [Example 1, 2-Tert-butoxy-2-(4-(4-chlorophenyl)-1,2,3,6-tetramethyl-1H-pyrrolo[2,3-b]pyridin-5-yl)acetic acid], the “CC60 (μM) ** : concentration at 50% cell damage with respect to MT-4 cells” value is 25 µM. As for `CCn1c(C)c(C)c2c(-c3ccc(Cl)cc3)c(C(OC(C)(C)C)C(=O)O)c(C)nc21` (stereo not drawn) [Example 2, 2-Tert-butoxy-2-(4-(4-chlorophenyl)-1-ethyl-2,3,6-trimethyl-1H-pyrrolo[2,3-b]pyridin-5-yl)acetic acid], the “CC60 (μM) ** : concentration at 50% cell damage with respect to MT-4 cells” value is over 233 µM.

Consider `C=CCn1c(C)c(C)c2c(-c3ccc(Cl)cc3)c(C(OC(C)(C)C)C(=O)O)c(C)nc21` (stereo not drawn) [Example 3, 2-(1-Allyl-4-(4-chlorophenyl)-2,3,6-trimethyl-1H-pyrrolo[2,3-b]pyridin-5-yl)-2-tert-butoxyacetic acid], for which the “CC60 (μM) ** : concentration at 50% cell damage with respect to MT-4 cells” value turned out to be 26.19 µM. Regarding `Cc1nc2c(c(C)c(C)n2CC2CC2)c(-c2ccc(Cl)cc2)c1C(OC(C)(C)C)C(=O)O` (stereo not drawn) [Example 4, 2-Tert-butoxy-2-(4-(4-chlorophenyl)-1-(cyclopropylmethyl)-2,3,6-trimethyl-1H-pyrrolo[2,3-b]pyridin-5-yl)acetic acid], the “CC60 (μM) ** : concentration at 50% cell damage with respect to MT-4 cells” value was found to be 18 µM.

`Cc1nc2c(c(C)c(C)n2Cc2ccccc2)c(-c2ccc(Cl)cc2)c1C(OC(C)(C)C)C(=O)O` (stereo not drawn) [Example 5, 2-(1-Benzyl-4-(4-chlorophenyl)-2,3,6-trimethyl-1H-pyrrolo[2,3-b]pyridin-5-yl)-2-tert-butoxyacetic acid]: the “CC60 (μM) ** : concentration at 50% cell damage with respect to MT-4 cells” value was determined as 17 µM. With `Cc1nc2c(c(C)c(C)n2Cc2cccc(Cl)c2)c(-c2ccc(Cl)cc2)c1C(OC(C)(C)C)C(=O)O` (stereo not drawn) [Example 6, 2-Tert-butoxy-2-(1-(3-chlorobenzyl)-4-(4-chlorophenyl)-2,3,6-trimethyl-1H-pyrrolo[2,3-b]pyridin-5-yl)acetic acid], the “CC60 (μM) ** : concentration at 50% cell damage with respect to MT-4 cells” value was determined as 9.74 µM. Next, `Cc1nc2c(c(C)c(C)n2Cc2ccc(F)cc2)c(-c2ccc(Cl)cc2)c1C(OC(C)(C)C)C(=O)O` (stereo not drawn) [Example 8, 2-Tert-butoxy-2-(4-(4-chlorophenyl)-1-(4-fluorobenzyl)-2,3,6-trimethyl-1H-pyrrolo[2,3-b]pyridin-5-yl)acetic acid]: 12.8 µM; `COc1ccc(Cn2c(C)c(C)c3c(-c4ccc(Cl)cc4)c(C(OC(C)(C)C)C(=O)O)c(C)nc32)cc1` (stereo not drawn) [Example 9, 2-Tert-butoxy-2-(4-(4-chlorophenyl)-1-(4-methoxybenzyl)-2,3,6-trimethyl-1H-pyrrolo[2,3-b]pyridin-5-yl)acetic acid]: 18.04 µM; `Cc1nc2c(c(C)c(C)n2Cc2ccncc2)c(-c2ccc(Cl)cc2)c1C(OC(C)(C)C)C(=O)O` (stereo not drawn) [Example 10, 2-Tert-butoxy-2-(4-(4-chlorophenyl)-2,3,6-trimethyl-1-(pyridin-4-ylmethyl)-1H-pyrrolo[2,3-b]pyridin-5-yl)acetic acid]: over 203 µM. On to `Cc1nc2c(c(C)c(C)n2Cc2ccccc2C#N)c(-c2ccc(Cl)cc2)c1C(OC(C)(C)C)C(=O)O` (stereo not drawn) [Example 11, 2-Tert-butoxy-2-(4-(4-chlorophenyl)-1-(2-cyanobenzyl)-2,3,6-trimethyl-1H-pyrrolo[2,3-b]pyridin-5-yl)acetic acid], for which the “CC60 (μM) ** : concentration at 50% cell damage with respect to MT-4 cells” value turned out to be 15.19 µM.

Consider `Cc1nc2c(c(C)c(C)n2Cc2cccnc2)c(-c2ccc(Cl)cc2)c1C(OC(C)(C)C)C(=O)O` (stereo not drawn) [Example 12, 2-Tert-butoxy-2-(4-(4-chlorophenyl)-2,3,6-trimethyl-1-(pyridin-3-ylmethyl)-1H-pyrrolo[2,3-b]pyridin-5-yl)acetic acid], for which the “CC60 (μM) ** : concentration at 50% cell damage with respect to MT-4 cells” value worked out at 56.14 µM. Regarding `Cc1nc2c(c(C)c(C)n2Cc2ccccn2)c(-c2ccc(Cl)cc2)c1C(OC(C)(C)C)C(=O)O` (stereo not drawn) [Example 13, 2-Tert-butoxy-2-(4-(4-chlorophenyl)-2,3,6-trimethyl-1-(pyridin-2-ylmethyl)-1H-pyrrolo[2,3-b]pyridin-5-yl)acetic acid], the “CC60 (μM) ** : concentration at 50% cell damage with respect to MT-4 cells” value amounted to 85.91 µM. For the compound `Cc1cccc(Cn2c(C)c(C)c3c(-c4ccc(Cl)cc4)c(C(OC(C)(C)C)C(=O)O)c(C)nc32)n1` (stereo not drawn) [Example 14, 2-Tert-butoxy-2-(4-(4-chlorophenyl)-2,3,6-trimethyl-1-((6-methylpyridin-2-yl)methyl)-1H-pyrrolo[2,3-b]pyridin-5-yl)acetic acid], the “CC60 (μM) ** : concentration at 50% cell damage with respect to MT-4 cells” value was determined as 36.6 µM. For `CCCn1c(C)c(C)c2c(-c3ccc(Cl)cc3)c(C(OC(C)(C)C)C(=O)O)c(C)nc21` (stereo not drawn) [Example 15, 2-Tert-butoxy-2-(4-(4-chlorophenyl)-2,3,6-trimethyl-1-propyl-1H-pyrrolo[2,3-b]pyridin-5-yl)acetic acid] the value was 20.7 µM; for `CCCCn1c(C)c(C)c2c(-c3ccc(Cl)cc3)c(C(OC(C)(C)C)C(=O)O)c(C)nc21` (stereo not drawn) [Example 16, 2-Tert-butoxy-2-(1-butyl-4-(4-chlorophenyl)-2,3,6-trimethyl-1H-pyrrolo[2,3-b]pyridin-5-yl)acetic acid], over 219 µM; for `Cc1nc2c(c(C)c(C)n2CC(C)C)c(-c2ccc(Cl)cc2)c1C(OC(C)(C)C)C(=O)O` (stereo not drawn) [Example 17, 2-Tert-butoxy-2-(4-(4-chlorophenyl)-1-isobutyl-2,3,6-trimethyl-1H-pyrrolo[2,3-b]pyridin-5-yl)acetic acid], 17.57 µM. Turning to `Cc1nc2c(c(C)c(C)n2CCC(C)C)c(-c2ccc(Cl)cc2)c1C(OC(C)(C)C)C(=O)O` (stereo not drawn) [Example 18, 2-Tert-butoxy-2-(4-(4-chlorophenyl)-1-isopentyl-2,3,6-trimethyl-1H-pyrrolo[2,3-b]pyridin-5-yl)acetic acid], the “CC60 (μM) ** : concentration at 50% cell damage with respect to MT-4 cells” value is 17.32 µM. For the compound `Cc1nc2c(c(C)c(C)n2CN2C(=O)c3ccccc3C2=O)c(-c2ccc(Cl)cc2)c1C(OC(C)(C)C)C(=O)O` (stereo not drawn) [Example 19, 2-Tert-butoxy-2-(4-(4-chlorophenyl)-1-((1,3-dioxoisoindolin-2-yl)methyl)-2,3,6-trimethyl-1H-pyrrolo[2,3-b]pyridin-5-yl)acetic acid], the “CC60 (μM) ** : concentration at 50% cell damage with respect to MT-4 cells” value was over 179 µM.

Regarding `C#CCn1c(C)c(C)c2c(-c3ccc(Cl)cc3)c(C(OC(C)(C)C)C(=O)O)c(C)nc21` (stereo not drawn) [Example 20, 2-Tert-butoxy-2-(4-(4-chlorophenyl)-2,3,6-trimethyl-1-(prop-2-ynyl)-1H-pyrrolo[2,3-b]pyridin-5-yl)acetic acid], the “CC60 (μM) ** : concentration at 50% cell damage with respect to MT-4 cells” value was determined as 18.77 µM. As to `Cc1nc2c(c(C)c(C)n2C(C)C)c(-c2ccc(Cl)cc2)c1C(OC(C)(C)C)C(=O)O` (stereo not drawn) [Example 21, 2-Tert-butoxy-2-(4-(4-chlorophenyl)-1-isopropyl-2,3,6-trimethyl-1H-pyrrolo[2,3-b]pyridin-5-yl)acetic acid], the “CC60 (μM) ** : concentration at 50% cell damage with respect to MT-4 cells” value came out at 24.51 µM. For `Cc1nc2c(c(C)c(C)n2CC#N)c(-c2ccc(Cl)cc2)c1C(OC(C)(C)C)C(=O)O` (stereo not drawn) [Example 22, 2-Tert-butoxy-2-(4-(4-chlorophenyl)-1-cyanomethyl-2,3,6-trimethyl-1H-pyrrolo[2,3-b]pyridin-5-yl)acetic acid] the value was 114.47 µM. As for `Cc1nc2c(c(C)c(C)n2CCC#N)c(-c2ccc(Cl)cc2)c1C(OC(C)(C)C)C(=O)O` (stereo not drawn) [Example 23, 2-Tert-butoxy-2-(4-(4-chlorophenyl)-1-(2-cyanoethyl)-2,3,6-trimethyl-1H-pyrrolo[2,3-b]pyridin-5-yl)acetic acid], the “CC60 (μM) ** : concentration at 50% cell damage with respect to MT-4 cells” value came to 25.49 µM. Turning to `Cc1nc2c(c(C)c(C)n2CCO)c(-c2ccc(Cl)cc2)c1C(OC(C)(C)C)C(=O)O` (stereo not drawn) [Example 24, 2-Tert-butoxy-2-(4-(4-chlorophenyl)-1-(2-hydroxyethyl)-2,3,6-trimethyl-1H-pyrrolo[2,3-b]pyridin-5-yl)acetic acid], the “CC60 (μM) ** : concentration at 50% cell damage with respect to MT-4 cells” value is 75.04 µM.

Consider `Cc1nc2[nH]c(C)c(C)c2c(-c2ccc(Cl)cc2)c1C(OC(C)(C)C)C(=O)O` (stereo not drawn) [Example 25, 2-Tert-butoxy-2-(4-(4-chlorophenyl)-2,3,6-trimethyl-1H-pyrrolo[2,3-b]pyridin-5-yl)acetic acid], for which the “CC60 (μM) ** : concentration at 50% cell damage with respect to MT-4 cells” value is 108 µM. Take `Cc1nc2c(c(C)c(C)n2C)c(-c2ccc(Cl)cc2)c1[C@H](OC(C)(C)C)C(=O)O` [Example 26, (S)-2-Tert-butoxy-2-(4-(4-chlorophenyl)-1,2,3,6-tetramethyl-1H-pyrrolo[2,3-b]pyridin-5-yl)acetic acid]: the “CC60 (μM) ** : concentration at 50% cell damage with respect to MT-4 cells” value worked out at 55.84 µM. On to `Cc1nc2c(c(C)c(C)n2C)c(-c2ccc(Cl)cc2)c1[C@@H](OC(C)(C)C)C(=O)O` [Example 27, (R)-2-tert-butoxy-2-(4-(4-chlorophenyl)-1,2,3,6-tetramethyl-1H-pyrrolo[2,3-b]pyridin-5-yl)acetic acid], for which the “CC60 (μM) ** : concentration at 50% cell damage with respect to MT-4 cells” value was 29 µM. As for `Cc1nc2c(c(C)c(C)n2CC2CC2)c(-c2ccc(Cl)cc2)c1[C@H](OC(C)(C)C)C(=O)O` [Example 28, (S)-2-Tert-butoxy-2-(4-(4-chlorophenyl)-1-(cyclopropylmethyl)-2,3,6-trimethyl-1H-pyrrolo[2,3-b]pyridin-5-yl)acetic acid], the “CC60 (μM) ** : concentration at 50% cell damage with respect to MT-4 cells” value is 20.4 µM.
